The results in this text go back to US20240199634A1, “CYCLIC COMPOUNDS AND METHODS OF USING SAME” (SCHRÖDINGER, INC., priority 2021, published 2024).

The target in test [1] is T1, Full length human CDC7 protein co-expressed with DBF4 (Homo sapiens, UniProt O00311).
T1 construct: Full length human CDC7 protein co-expressed with DBF4; purchased SignalChem (China)
Kind of test: CDC7 Kinase Biochemical Assay (ADP-Glo, PDKtide substrate). As to conditions: 0.1 nM CDC7/DBF4, 1 μM ATP, 10 μM PDKtide, 4 h reaction. The method, then:
CDC7 Kinase Biochemical Assay PROTOCOL:
Full length human CDC7 protein co-expressed with DBF4 was purchased from SignalChem (China). CDC7 kinase activity was determined with PDKtide (SignalChem) as a substrate and by measuring ADP production using the ADP-Glo™ Kinase Assay kit (Promega) following the manufacturer's instructions. The kinase reaction was performed using the following conditions: Buffer: 40 mM Tris pH 7.5, 20 mM MgCl2, 0.1 mg/mL BSA and 50 μM DTT. Final reaction mix contained 0.1 nM CDC7/DBF4, 1 μM ATP and 10 μM PDKtide. The kinase reaction time was 4 h. The ADP-Glo signal was measured using an EnVision plate reader (PerkinELmer).
Percent inhibition of CDC7 kinase activity was calculated based on the following formula:
[formula] • SSample: the signal of compounds • SHigh Ctrl: the signal of high control (DMSO) • SLow Ctrl: the signal of low control (positive control CDC7 inhibitor)
(In general: ADP-Glo first removes unused ATP, then detects ADP through luciferase.)

The subject of test [2] is phosphorylation of MCM2 S53 in colo205 cells. Kind of test: Phosphorylated MCM2 MSD Electrochemiluminescence Assay. The format is cell-based. As to conditions: Homo sapiens, COLO 205, 20 h incubation, read-out: pMCM2-S53 MSD Colo205 IC50. The method, then: Phosphorylated MCM2 MSD Electrochemiluminescence Assay
The effect of CDC7 inhibitors on cellular phosphorylation of the CDC7 substrate MCM2 was determined using the following protocol:
A total of 40,000 colo205 cells in 100 μL culture medium (1640 medium+10% Fetal bovine serum+1% Penicillin-Streptomycin) were plated in 96-well cell culture plates and allowed to attach for 6 hours. 3-fold serial dilutions of test compounds were prepared in completed PBS at 25× final concentration and 4 μL of each were added to the cells and incubated for 20 hours at 37° C., 5% CO2. Each concentration was tested in duplicate. After the 20 h incubation, cells were washed with 150 μL PBS and lysed with 40 μL MSD lysis buffer (obtained from Meso Scale Diagnostics) supplied with 1× complete ULTRA cocktail inhibitor (obtained from Roche). To detect phosphorylation of MCM2 S53, 30 μL of capture antibody solution (obtained from Abnova, catalog number H00004171-M01, 1:500) was added to each well of MULTI-ARRAY 96-well High Bind Plate, and incubated overnight. The antibody solution was removed, wells blocked with BSA solution and plates washed, followed by addition of 30 μl of cell lysate per well. After 2 h incubation, plates were washed. 30 μL of 1× detection antibody solution (obtained from Abcam, catalog number ab109133, 1:1000) was then added to each well and incubate for 1 hour. Plates were washed and 30 μL of 1× secondary antibody solution (obtained from MSD, catalog number R32AB-1, 1:5000) was added to each well and incubate for 1 hour. Plates were washed and 150 μL of 1× Read Buffer T was added to each well of the MSD plate. The electrochemiluminescence signal was measured on a MESO SECTOR 5600 plate reader. The percentage of remaining phosphorylated MCM2 signal was calculated following the equation below.
[formula] • HC (high control): Cells treated with DMSO • Cpds: Cells treated with test compounds • LC (low control): Cells treated with positive control CDC7 inhibitor

A value given as a limit tells only on which side of the number the result lay.

T1 sequence (O00311 whole entry): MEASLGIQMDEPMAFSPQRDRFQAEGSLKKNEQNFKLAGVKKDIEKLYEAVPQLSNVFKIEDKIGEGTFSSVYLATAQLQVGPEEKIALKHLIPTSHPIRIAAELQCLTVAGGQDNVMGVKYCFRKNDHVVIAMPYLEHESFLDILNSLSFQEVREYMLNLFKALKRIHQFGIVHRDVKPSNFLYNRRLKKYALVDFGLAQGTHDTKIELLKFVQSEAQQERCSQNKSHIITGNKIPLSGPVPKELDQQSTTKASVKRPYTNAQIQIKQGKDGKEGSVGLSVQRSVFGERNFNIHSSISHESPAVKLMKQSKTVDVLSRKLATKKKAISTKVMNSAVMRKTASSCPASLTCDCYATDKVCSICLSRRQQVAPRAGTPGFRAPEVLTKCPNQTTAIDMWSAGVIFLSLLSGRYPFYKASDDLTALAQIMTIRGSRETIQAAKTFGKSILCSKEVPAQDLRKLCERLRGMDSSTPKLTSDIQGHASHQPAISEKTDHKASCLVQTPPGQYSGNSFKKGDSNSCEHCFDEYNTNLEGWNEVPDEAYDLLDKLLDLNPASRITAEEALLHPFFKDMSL
T1 sequence (Q9UBU7 whole entry partner): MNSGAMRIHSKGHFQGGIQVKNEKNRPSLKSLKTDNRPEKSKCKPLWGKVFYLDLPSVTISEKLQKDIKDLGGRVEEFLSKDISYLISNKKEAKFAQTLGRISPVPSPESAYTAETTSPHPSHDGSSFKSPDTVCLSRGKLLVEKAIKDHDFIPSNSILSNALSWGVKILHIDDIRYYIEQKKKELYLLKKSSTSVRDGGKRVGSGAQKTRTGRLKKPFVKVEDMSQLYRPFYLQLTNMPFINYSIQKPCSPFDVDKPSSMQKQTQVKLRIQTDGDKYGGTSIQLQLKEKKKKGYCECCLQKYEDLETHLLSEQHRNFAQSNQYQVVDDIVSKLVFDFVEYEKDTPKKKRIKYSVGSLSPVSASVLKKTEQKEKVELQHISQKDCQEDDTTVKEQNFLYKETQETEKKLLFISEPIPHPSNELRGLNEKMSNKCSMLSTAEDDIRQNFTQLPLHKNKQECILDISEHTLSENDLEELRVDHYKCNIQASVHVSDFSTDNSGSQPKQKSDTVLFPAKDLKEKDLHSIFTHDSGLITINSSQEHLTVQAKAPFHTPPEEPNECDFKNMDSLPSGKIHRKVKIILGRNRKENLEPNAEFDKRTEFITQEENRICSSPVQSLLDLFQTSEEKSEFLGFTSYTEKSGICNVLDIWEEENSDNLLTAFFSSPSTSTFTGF

As usually defined, the IC50 is the concentration needed to halve the response being measured. On to `Cc1n[nH]cc1-c1cc2c3c([nH]c(=O)c2s1)C(O)(C(C)(C)C)COC3` (single isomer, unassigned) [Compound 91], for which the IC50 is > 10 nM in test [1] and ≤ 5 nM in test [2].

For `O=c1[nH]c2c(c3cc(-c4cn[nH]c4)sc13)C1CCC2(O)CC1` [Compound 8, 6-hydroxy-2-(1H-pyrazol-4-yl)-6,7,8,9-tetrahydro-6,9-ethanothieno[2,3-c]quinolin-4(5H)-one], the values for the IC50 in test [1] and in test [2] were ≤ 1 nM and 20 to 50 nM, respectively.

On to `CC(C)(C)C1(O)CNCc2c1[nH]c(=O)c1sc(-c3cn[nH]c3)cc21` (stereo not shown) [Compound 93, 4-(tert-butyl)-4-hydroxy-8-(1H-pyrazol-4-yl)-1,3,4,5-tetrahydrothieno[2,3-c][1,6]naphthyridin-6(2H)-one], for which the values for the IC50 in test [1] and in test [2] were ≤ 1 nM and 20 to 50 nM, respectively.

As to `Cn1nccc1-c1cc2c3c([nH]c(=O)c2s1)C(O)(C(C)(C)C)COC3` (single isomer, unassigned) [Compound 89], the IC50 is ≤ 1 nM in test [1] and 5 to 20 nM in test [2].

In the case of `CC(C)C1(O)COCc2c1[nH]c(=O)c1sc(-c3ccns3)cc21` (single isomer, unassigned) [Compound 46], the IC50 in test [1] was ≤ 1 nM; in test [2] it was 5 to 20 nM.

`CC(C)(C)C1(O)COCc2c1[nH]c(=O)c1sc(-c3ccncc3F)cc21` (single isomer, unassigned) [Compound 59]: the IC50 in test [1] is ≤ 1 nM; in test [2], ≤ 5 nM.

Regarding `Cc1n[nH]cc1-c1cc2c3c([nH]c(=O)c2s1)C(O)(C(F)(F)F)COC3` (single isomer, unassigned) [Compound 32], the figures for the IC50 in test [1] and in test [2] were ≤ 1 nM and 5 to 20 nM, respectively.

Consider `CC(C)C1(O)COCc2c1[nH]c(=O)c1sc(-c3cn[nH]c3)cc21` (single isomer, unassigned) [Compound 16], for which the IC50 is ≤ 1 nM in test [1] and ≤ 5 nM in test [2].

`CC1(O)CCCc2c1[nH]c(=O)c1sc(-c3cn[nH]c3)cc21` (single isomer, unassigned) [Compound 41]: the results for the IC50 in test [1] and in test [2] were 1 to 10 nM and > 50 nM, respectively.

With `CCC1(O)CC(F)(F)Cc2c1[nH]c(=O)c1sc(-c3cn[nH]c3)cc21` (single isomer, unassigned) [Compound 51], the IC50 in test [1] is ≤ 1 nM; in test [2] it was ≤ 5 nM.

With `Cc1cnccc1-c1cc2c3c([nH]c(=O)c2s1)C(O)(C(C)(C)C)COC3` (single isomer, unassigned) [Compound 69], the IC50 in test [1] was ≤ 1 nM; in test [2], 5 to 20 nM.

As to `CCC1(O)COCc2c1[nH]c(=O)c1sc(-c3cn[nH]c3)cc21` (single isomer, unassigned) [Compound 18], the IC50 was ≤ 1 nM in test [1] and 5 to 20 nM in test [2].

As to `O=c1[nH]c2c(c3cc(-c4cn[nH]c4)sc13)COCC2(O)C(F)F` (single isomer, unassigned) [Compound 42], the IC50 in test [1] is ≤ 1 nM; in test [2], 20 to 50 nM.

As for `CC(C)(C)[C@@]1(O)COCc2c1[nH]c(=O)c1sc(N3CCOCC3)cc21` [Compound 85, (S)-4-(tert-butyl)-4-hydroxy-8-morpholino-1,3,4,5-tetrahydro-6H-pyrano[4,3-b]thieno[3,2-d]pyridin-6-one], the IC50 in test [1] is ≤ 1 nM; in test [2], > 50 nM.
